From US12344610B2, “APOL1 inhibitors and methods of use” (Maze Therapeutics, Inc., priority 2022, dated 2025)
Like-named read-outs stand apart in the source and are kept apart here.

Assays:
Type in all cases: cell-based
[1] = system: Trypanosoma brucei Lister 427 VSG221 with APOL1 G0 recombinant protein; assay: APOL1 G0 trypanosome cell rescue assay (Example B5); conditions: geometric mean of at least 2 assay runs, † = single assay run
In short: (§1)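 Mature APOL1 (residues 28-398, E. coli-expressed, His-tag removed by TEV) was added as a 2 μg/mL solution to T. brucei Lister 427 VSG221 in modified HMI-9 medium at 250 cells/well, with duplicate 11-point 2-fold compound dilutions (0.4% DMSO). After 20 h at 37° C, 5% CO2, viability was read by CellTiter-Glo luminescence.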

[2] = system: Trypanosoma brucei Lister 427 VSG221 with APOL1 G1 recombinant protein; assay: APOL1 G1 trypanosome cell rescue assay (Example B5); conditions: geometric mean of at least 2 assay runs, † = single assay run
In short: as §1

[3] = system: Trypanosoma brucei Lister 427 VSG221 with APOL1 G2 recombinant protein; assay: APOL1 G2 trypanosome cell rescue assay (Example B5); conditions: geometric mean of at least 2 assay runs, † = single assay run
In short: as §1

[4] = system: HEK293 clonal cell line overexpressing APOL1 G1; assay: APOL1 G1 HEK293 cell rescue assay (Example B3); conditions: geometric mean of at least 2 runs, † = single run, ¥ = concentration at 50% rescue estimated (no sigmoidal curve)
In short: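 HEK293 clonal line overexpressing APOL1 G1; EC50 is half-maximal reversal of APOL1-induced cell death. Values are the geometric mean of ≥2 runs on separate days, each run the average of duplicate wells. Where no sigmoidal curve could be fitted, the concentration giving 50% rescue was estimated.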

[5] = Trypanosoma brucei, 20 h, read-out: APOL1 G0 Trypanosome Rescue EC50, Trypanosoma brucei Lister 427 VSG221 with APOL1 G0 recombinant protein, 20 hours, CellTiter-Glo
[6] = Trypanosoma brucei, 20 h, read-out: APOL1 G1 Trypanosome Rescue EC50, Trypanosoma brucei Lister 427 VSG221 with APOL1 G1 recombinant protein, 20 hours, CellTiter-Glo
[7] = Trypanosoma brucei, 20 h, read-out: APOL1 G2 Trypanosome Rescue EC50, Trypanosoma brucei Lister 427 VSG221 with APOL1 G2 recombinant protein, 20 hours, CellTiter-Glo
[8] = Homo sapiens, HEK293, HEK293 clonal line overexpressing APOL1 G1

Structure (SMILES) | EC50 ([1]; read-out: APOL1 G0 Trypanosome Rescue EC50, Trypanosoma brucei Lister 427 VSG221 with APOL1 G0 recombinant protein, 20 hours, CellTiter-Glo) [nM] | EC50 ([2]; read-out: APOL1 G1 Trypanosome Rescue EC50, Trypanosoma brucei Lister 427 VSG221 with APOL1 G1 recombinant protein, 20 hours, CellTiter-Glo) [nM] | EC50 ([3]; read-out: APOL1 G2 Trypanosome Rescue EC50, Trypanosoma brucei Lister 427 VSG221 with APOL1 G2 recombinant protein, 20 hours, CellTiter-Glo) [nM] | EC50 ([4]; HEK293 clonal line overexpressing APOL1 G1) [nM] | EC50 [1, 5] [nM] | EC50 [2, 6] [nM] | EC50 [3, 7] [nM] | EC50 [4, 8] [nM]
O=C1Nc2ccc(Cl)cc2C12CCN(CCOc1ccc(C3CCCS3(=O)=O)cc1)CC2 (single isomer, unassigned) [Compound 177, (R) or (S)-2-[4-(2-{5-chloro-2-oxo-1,2-dihydrospiro[indole-3,4′-piperidin]-1′-yl}ethoxy)phenyl]-1λ^6-thiolane-1,1-dione] | 260 | 314 | 84.4 | 132 | – | – | – | –
CS(=O)(=O)c1ccc(OCCN2CCC3(CC2)C(=O)Nc2c(C#N)cc(Cl)cc23)cc1 [Compound 9, 5-chloro-1′-[2-(4-methanesulfonylphenoxy)ethyl]-2-oxo-1,2-dihydrospiro[indole-3,4′-piperidine]-7-carbonitrile] | – | – | – | – | > 4000 | > 4000 | 1320 | ~11500
CS(=O)(=O)CCCn1ncc2cc(OCCN3CCC4(CC3)C(=O)Nc3ccc(Cl)cc34)ccc21 [Compound 14, 5-chloro-1′-(2-{[1-(3-methanesulfonylpropyl)-1H-indazol-5-yl]oxy}ethyl)-1,2-dihydrospiro[indole-3,4′-piperidin]-2-one] | – | – | – | – | 378 | 488 | 127 | 476
O=C1Nc2ccc(Cl)cc2C12CCN(CCOc1ccc3c(cnn3C3COC3)c1)CC2 [Compound 15, 5-chloro-1′-(2-{[1-(oxetan-3-yl)-1H-indazol-5-yl]oxy}ethyl)-1,2-dihydrospiro[indole-3,4′-piperidin]-2-one] | – | – | – | – | 336 | 342 | 124 | 279
CC(C)n1ncc2cc(OCCN3CCC4(CC3)C(=O)Nc3ccc(Cl)cc34)ccc21 [Compound 16, 5-chloro-1′-(2-{[1-(propan-2-yl)-1H-indazol-5-yl]oxy}ethyl)-1,2-dihydrospiro[indole-3,4′-piperidin]-2-one] | – | – | – | – | 267 | 312 | 110 | 295
O=C1Nc2ccc(Cl)cc2C12CCN(CCOc1ccc(S(=O)(=O)[C@H]3C[C@@H](O)C3)cc1)CC2 [Compound 17, 5-chloro-1′-[2-(4-{[(cis)-3-hydroxycyclobutyl]sulfonyl}phenoxy)ethyl]-1,2-dihydrospiro[indole-3,4′-piperidin]-2-one] | – | – | – | – | 108 | 148 | 36.7 | 160
O=C1CCc2cc(OCCN3CCC4(CC3)C(=O)Nc3ccc(Cl)cc34)ccc2N1C1COC1 [Compound 99, 5-chloro-1′-(2-{[1-(oxetan-3-yl)-2-oxo-1,2,3,4-tetrahydroquinolin-6-yl]oxy}ethyl)-1,2-dihydrospiro[indole-3,4′-piperidin]-2-one] | – | – | – | – | 216 | 346 | 90.1 | 205
CS(=O)(=O)c1ccc(OCCN2CCC3(CC2)C(=O)Nc2ccc(C#N)cc23)cc1C(F)F [Compound 100, 1′-{2-[3-(difluoromethyl)-4-methanesulfonylphenoxy]ethyl}-2-oxo-1,2-dihydrospiro[indole-3,4′-piperidine]-5-carbonitrile] | – | – | – | – | 63.5 | 113 | 25.9 | 134
CS(=O)(=O)C1(c2ccc(OCCN3CCC4(CC3)C(=O)Nc3ccc(C#N)cc34)cc2)CC1 [Compound 101, 1′-{2-[4-(1-methanesulfonylcyclopropyl)phenoxy]ethyl}-2-oxo-1,2-dihydrospiro[indole-3,4′-piperidine]-5-carbonitrile] | – | – | – | – | 195 | 200 | 69.4 | 248
CS(=O)(=O)C1(c2ccc(OCCN3CCC4(CC3)C(=O)Nc3ccc(Cl)cc34)cc2)CC1 [Compound 102, 5-chloro-1′-{2-[4-(1-methanesulfonylcyclopropyl)phenoxy]ethyl}-1,2-dihydrospiro[indole-3,4′-piperidin]-2-one] | – | – | – | – | 47.3 | 50.5 | 18 | 111
CN1c2ccc(OCCN3CCC4(CC3)C(=O)Nc3ccc(Cl)cc34)cc2CCS1(=O)=O [Compound 103, 6-(2-{5-chloro-2-oxo-1,2-dihydrospiro[indole-3,4′-piperidin]-1′-yl}ethoxy)-1-methyl-3,4-dihydro-1H-2λ^6,1-benzothiazine-2,2-dione] | – | – | – | – | 113 | 170 | 43.7 | 124
CN1c2ccc(OCCN3CCC4(CC3)C(=O)Nc3ccc(C#N)cc34)cc2CCS1(=O)=O [Compound 104, 1′-{2-[(1-methyl-2,2-dioxo-3,4-dihydro-1H-2λ^6,1-benzothiazin-6-yl)oxy]ethyl}-2-oxo-1,2-dihydrospiro[indole-3,4′-piperidine]-5-carbonitrile] | – | – | – | – | 583 | 726 | 184 | 356
N#Cc1ccc2c(c1)C1(CCN(CCOc3ccc4c(c3)CCC(=O)N4CC(F)F)CC1)C(=O)N2 [Compound 105, 1′-(2-{[1-(2,2-difluoroethyl)-2-oxo-1,2,3,4-tetrahydroquinolin-6-yl]oxy}ethyl)-2-oxo-1,2-dihydrospiro[indole-3,4′-piperidine]-5-carbonitrile] | – | – | – | – | 217 | 274 | 75.2 | 175
O=C1CCc2cc(OCCN3CCC4(CC3)C(=O)Nc3ccc(Cl)cc34)ccc2N1CC(F)F [Compound 106, 5-chloro-1′-(2-{[1-(2,2-difluoroethyl)-2-oxo-1,2,3,4-tetrahydroquinolin-6-yl]oxy}ethyl)-1,2-dihydrospiro[indole-3,4′-piperidin]-2-one] | – | – | – | – | 69 | 91.8 | 23.4 | 122
CS(=O)(=O)c1ccc(OCCN2CCC3(CC2)C(=O)Nc2ccc(C#N)cc23)cc1C(F)(F)F [Compound 107, 1′-{2-[4-methanesulfonyl-3-(trifluoromethyl)phenoxy]ethyl}-2-oxo-1,2-dihydrospiro[indole-3,4′-piperidine]-5-carbonitrile] | – | – | – | – | 57.2 | 93.5 | 23 | 120
CS(=O)(=O)c1ccc(OCCN2CCC3(CC2)C(=O)Nc2ccc(Cl)cc23)cc1C(F)(F)F [Compound 108, 5-chloro-1′-{2-[4-methanesulfonyl-3-(trifluoromethyl)phenoxy]ethyl}-1,2-dihydrospiro[indole-3,4′-piperidin]-2-one] | – | – | – | – | 23.3 | 30.7 | 9.22 | 49.7
CS(=O)(=O)C1(c2ccc(OCCN3CCC4(CC3)C(=O)Nc3ccc(C#N)cc34)cc2)COC1 [Compound 109, 1′-{2-[4-(3-methanesulfonyloxetan-3-yl)phenoxy]ethyl}-2-oxo-1,2-dihydrospiro[indole-3,4′-piperidine]-5-carbonitrile] | – | – | – | – | 320 | 385 | 98 | 321
Cc1cc(OCCN2CCC3(CC2)C(=O)Nc2ccc(Cl)cc23)ccc1S(C)(=O)=O [Compound 110, 5-chloro-1′-[2-(4-methanesulfonyl-3-methylphenoxy)ethyl]-1,2-dihydrospiro[indole-3,4′-piperidin]-2-one] | – | – | – | – | 71.4 | 87.7 | 26.1 | 100
Cc1cc(OCCN2CCC3(CC2)C(=O)Nc2ccc(C#N)cc23)ccc1S(C)(=O)=O [Compound 111, 1′-[2-(4-methanesulfonyl-3-methylphenoxy)ethyl]-2-oxo-1,2-dihydrospiro[indole-3,4′-piperidine]-5-carbonitrile] | – | – | – | – | 282 | 362 | 105 | 246
O=C1Nc2ccc(Cl)cc2C12CCN(CCOc1ccc(S(=O)(=O)C(F)F)cc1)CC2 [Compound 112, 5-chloro-1′-[2-(4-difluoromethanesulfonylphenoxy)ethyl]-1,2-dihydrospiro[indole-3,4′-piperidin]-2-one] | – | – | – | – | 58.2 | 69.6 | 18.3 | 77.5
N#Cc1ccc2c(c1)C1(CCN(CCOc3ccc(S(=O)(=O)C(F)F)cc3)CC1)C(=O)N2 [Compound 113, 1′-[2-(4-difluoromethanesulfonylphenoxy)ethyl]-2-oxo-1,2-dihydrospiro[indole-3,4′-piperidine]-5-carbonitrile] | – | – | – | – | 124 | 154 | 46.7 | 176
